Values after ≈ are worked out from the molar mass of the structure shown. Read-outs that look alike come from different tables or passages of the source.
What was measured:
Assay type in all cases: cell-based
[1] = system: E. coli (WT); assay: microbe, parasite or virus in culture; conditions: Escherichia coli, E. coli (WT)
[2] = system: Klebsiella spp. (ESBL); assay: microbe, parasite or virus in culture; conditions: Klebsiella
[3] = system: Proteus mirabilis (WT); assay: microbe, parasite or virus in culture; conditions: Proteus mirabilis (WT)
[4] = system: E. coli ATCC 25922 wild type and mutants; assay: MIC in M9 minimal media; conditions: Escherichia coli, read-out: MICs in M9 minimal media
Method: (§1) Spontaneous Resistance Frequency was determined in vitro for GSK2251052 and the resistance mutants in E. coli ATCC 25922, K. pneumoniae ATCC 13883, and P. aeruginosa ATCC 27853 strains were characterized. GSK2251052 was prepared as described in U.S. Pat. No. 7,816,344 (the entire contents of which are hereby incorporated by reference herein). LB broth, Mueller Hinton II broth (adjusted), and Difco noble agar were obtained from Becton Dickinson (Cockeysville, Md., USA). M9 minimal broth containing 1×M9 salt, 0.5 μg/ML thiamine, 1 mM MgSO4, 0.1 mM CaCl2, 2% glucose, was obtained from Teknova (Hollister, Calif., USA). Antibacterial agents ciprofloxacin, ceftazidime, chloramphenicol, gentamycin, kanamycin, polymixin B, tobramycin and trimethoprim, and amino acids were obtained from Sigma Chemicals (St. Louis, Mo., USA). Strains were obtained from ATCC (Manassas, Va., USA).
(§2) Susceptibility tests were performed following the recommendations for aerobic bacteria (M7-A7) from the Clinical and Laboratories Standards Institute (CLSI).
(§3) The aminoacyl-tRNA synthetase enzyme, LeuRS, ensures the correct amino acid, leucine, is attached to tRNA^Leu. The LeuRS synthetic active site is capable of aminoacylating tRNA^Leu with amino acids structural similar to leucine (norvaline, norleucine, isoleucine and methionine). These mischarged tRNA^Leu are hydrolyzed by the editing domain, thus preventing the deleterious incorporation of incorrect amino acids into the growing polypeptide. The laboratory generated mutants were further tested for their ability to grow in defined media with exogenously added amino acids. Norvaline and norleucine, structurally similar to leucine, were tested in M9 minimal media. […]

[5] = system: K. pneumoniae ATCC 13883 wild type and mutants; assay: MIC in M9 minimal media; conditions: Klebsiella pneumoniae, read-out: MICs in M9 minimal media
Method: as §1, §2, §3

[6] = system: P. aeruginosa ATCC 27853 wild type and mutants; assay: MIC in M9 minimal media; conditions: Pseudomonas aeruginosa, read-out: MICs in M9 minimal media
Method: as §1, §2, §3

[7] = system: E. coli isolates from subject E. coli 1; assay: MIC in M9 minimal media of clinical isolates, subject E. coli 1; conditions: Escherichia coli, read-out: MIC in M9 Minimal Media
Method: The E. coli and P. mirabilis strains were cultured on Trypticase Soy Agar/5% blood plates (Becton Dickinson BBL), in cation adjusted Mueller-Hinton II Broth, or in M9 minimal salts (Becton Dickinson) broth containing 0.4% glucose and 200 uM MgSO4. L-Norvaline (Sigma-Aldrich) was prepared at a concentration of 6.4 mg/ml in […], in a final volume of approx 0.5 ml, and stored at −20° C. until required.
(§4) Minimum inhibitory concentrations (MICs) were determined using the CLSI (Clinical and Laboratory Standards Institute, formerly NCCLS) recommended broth microdilution methodology [NCCLS, 2003] using defined media.
Throughout this study E. coli and P. mirabilis strains were cultured on Trypticase Soy Agar/5% blood plates, on M9 salts/1.2% Bacto Agar plates, in Cation Adjusted Mueller-Hinton II Broth (CAMHB), or in M9 Minimal Salt Broth containing 0.4% glucose and 200 μM MgSO4. GSK2251052 and norvaline were prepared at a concentration of 6.4 mg/mL (free base) in 100% DMSO and 100% water respectively, aliquoted in 0.5 mL individual stocks, and stored at −20° C. until required.
Minimum inhibitory concentrations (MICs) were determined for each organism using the CLSI (Clinical and Laboratory Standards Institute) recommended broth microdilution methodology [CLSI, 2009].
Strains tested are detailed in Table 15. MICs for norvaline and GSK2251052 could only be determined for E. coli isolates from subject E. coli 1 (Table 16) as M9 Minimal Media could not sustain growth of E. coli isolates from subject E. coli 2 (isolates 2a-2o) or P. mirabilis isolates (isolates 3a-3c) from subject E. coli 3. […] This phenotype is consistent with a mutation in the editing site of LeuRS, which could also be responsible for the concomitant decrease in susceptibility to GSK2251052 observed in isolates from Days 2, 3 and 4 (Table 16).

[8] = system: E. coli clinical isolates from subject E. coli 2; assay: GSK2251052 MIC of clinical isolates, subject E. coli 2; conditions: for MIC: Escherichia coli, read-out: GSK2251052 MIC GSK results
Method: as §4
Almost all clinical isolates were determined to contain T247I in addition to a second mutation in editing domains 1 or 2. The second mutations include Asp251Asn, Ala323 Val, Arg344Cys/His and Asp345Ala. On Day 11 and at Follow Up a double mutant (R344H; D345A) was also isolated (see Table 14). For these clinical isolates, five independent colonies were characterized from day 6 to late follow-up, and leuS and promoter regions were sequenced from all isolates.

[9] = GSK2251052 breakpoint, read-out: susceptibility category of MIC90

## NC[C@H]1OB(O)c2c(OCCCO)cccc21 [GSK2251052, (S)-3-aminomethyl-7-(3-hydroxy-propoxy)-3h-benzo[c][1,2]oxaborol-1-ol]
[1]; 214 isolates, read-out: MIC90
  MIC90: 1 µg/mL (≈ 4.22 µM)
[1]; [9]
  MIC90: < 4 µg/mL
[2]
  MIC90: 1 µg/mL (≈ 4.22 µM)
[2]; read-out: susceptibility category of MIC90
  MIC90: < 4 µg/mL
[3]; 235 isolates, read-out: MIC90
  MIC90: 1 µg/mL (≈ 4.22 µM)
[3]; [9]
  susceptibility category of MIC90: < 4 µg/mL
[4]; ATCC25922, E 101(leuRS Y246H)
  MIC: 64 µg/mL (≈ 270 µM)
[4]; ATCC25922, E 102(leuRS D345G)
  MIC: > 256 µg/mL
[4]; ATCC25922, E 107(leuRS G229S)
  MIC: 128 µg/mL (≈ 540 µM)
[4]; ATCC25922, E. coli ATCC25922
  MIC: 1 µg/mL (≈ 4.22 µM)
[5]; ATCC13883, K 104(leuRS D345Y)
  MIC: > 256 µg/mL
[5]; ATCC13883, K 105(leuRS G229R)
  MIC: > 256 µg/mL
[5]; ATCC13883, K 107(leuRS S227F)
  MIC: 32 µg/mL (≈ 135 µM)
[5]; ATCC13883, K 108(leuRS T248P)
  MIC: > 256 µg/mL
[5]; ATCC13883, K 110(leuRS V338L)
  MIC: 64 µg/mL (≈ 270 µM)
[5]; ATCC13883, Klebsiella pneumoniae ATCC13883
  MIC: 2 µg/mL (≈ 8.44 µM)
[6]; ATCC27853, P 101 (leuRS T256P)
  MIC: 128 µg/mL (≈ 540 µM)
[6]; ATCC27853, P 106 (leuRS V342M)
  MIC: > 256 µg/mL
[6]; ATCC27853, P 108 (leuRS T252P)
  MIC: > 256 µg/mL
[6]; ATCC27853, P. aeruginosa ATCC27853
  MIC: 4 µg/mL (≈ 16.9 µM)
[7]; 24 h, Isolate 1a, Blood, Day 1
  MIC: 1 µg/mL (≈ 4.22 µM)
[7]; 24 h, Isolate 1b, Urine, Day 1
  MIC: 1 µg/mL (≈ 4.22 µM)
[7]; 48 h, Isolate 1c, Blood, Day 2
  MIC: 32 µg/mL (≈ 135 µM)
[7]; 96 h, Isolate 1e, Blood, Day 4
  MIC: 32 µg/mL (≈ 135 µM)
[7]; Isolate 1d, Blood, Day 3
  MIC: 32 µg/mL (≈ 135 µM)
[8]; 24 h, subject E. Coli 2, day 1, no LeuRS change
  MIC: 0.25 µg/mL
[8]; 48 h
  MIC: 512 µg/mL
[8]; 72 h
  MIC: 512 µg/mL
[8]; 96 h
  MIC: 512 µg/mL
[8]; 120 h
  MIC: 512 µg/mL
[8]; 144 h
  MIC: 1020 µg/mL
[8]; 168 h
  MIC: 1020 µg/mL
[8]; 192 h
  MIC: 1020 µg/mL
[8]; 216 h
  MIC: 1020 µg/mL
[8]; 240 h
  MIC: 1020 µg/mL
[8]; 264 h
  MIC: 1020 µg/mL
[8]; 288 h
  MIC: 1020 µg/mL
[8]; 312 h
  MIC: 1020 µg/mL
[8]
  MIC: 1020 µg/mL
[8]; subject E. Coli 2, Follow-up, 5x R344H, D345A
  GSK2251052 MIC GSK results: 1024 µg/mL
[8]; subject E. Coli 2, day 9, 4x T247I, D251N
  GSK2251052 MIC GSK results: 1024 µg/mL
[8]; subject E. Coli 2, day 10, 3x T247I, A323V
  GSK2251052 MIC GSK results: 1024 µg/mL
[8]; subject E. Coli 2, day 11, 4x R344H, D345A
  GSK2251052 MIC GSK results: 1024 µg/mL
[8]; subject E. Coli 2, day 12, 4x T247I, A323V
  GSK2251052 MIC GSK results: 1024 µg/mL
